Assay results taken from publication PMC6934184, “Selective DNA-PKcs inhibition extends the therapeutic index of localized radiotherapy and chemotherapy” (The Journal of Clinical Investigation, 2019).

Target: T1, CDK1/cyclin A2 (Homo sapiens, UniProt P06493)
T1 construct: purchased Thermo Fisher Scientific (Life Technologies) SelectScreen
Assay: SelectScreen LanthaScreen
Assay type: binding
Details: 1 µM
Procedure, shortened: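 SelectScreen broad panel; activity (Z'LYTE, Adapta) plus binding formats. ATP: Km app for CSF1R Z'LYTE; 10 for CAMK1 Adapta. Readout = % per kinase.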

T1 sequence (P06493 whole entry): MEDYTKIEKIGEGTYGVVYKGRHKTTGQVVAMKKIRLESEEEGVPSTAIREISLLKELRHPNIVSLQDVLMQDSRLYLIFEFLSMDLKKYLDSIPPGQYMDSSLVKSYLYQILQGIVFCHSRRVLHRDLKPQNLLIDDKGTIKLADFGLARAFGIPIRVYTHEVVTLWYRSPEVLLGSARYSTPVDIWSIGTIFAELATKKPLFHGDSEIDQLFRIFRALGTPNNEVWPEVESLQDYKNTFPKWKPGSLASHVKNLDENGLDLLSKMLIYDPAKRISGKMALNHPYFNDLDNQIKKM
T1 sequence (P20248 whole entry partner): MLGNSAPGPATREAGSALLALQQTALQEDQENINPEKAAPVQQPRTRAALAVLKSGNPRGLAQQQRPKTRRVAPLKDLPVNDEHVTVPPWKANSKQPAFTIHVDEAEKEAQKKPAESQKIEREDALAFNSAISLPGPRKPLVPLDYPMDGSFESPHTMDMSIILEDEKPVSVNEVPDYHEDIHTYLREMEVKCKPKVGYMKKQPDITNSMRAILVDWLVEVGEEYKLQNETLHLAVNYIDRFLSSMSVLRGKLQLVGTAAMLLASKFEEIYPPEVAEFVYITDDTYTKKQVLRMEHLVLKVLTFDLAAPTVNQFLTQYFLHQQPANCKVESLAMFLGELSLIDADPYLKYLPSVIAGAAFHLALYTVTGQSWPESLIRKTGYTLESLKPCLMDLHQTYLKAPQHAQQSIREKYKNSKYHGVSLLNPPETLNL

## CN(C(=O)CN1CCOCC1)c1ccc2sc3c(-c4cccc5c(=O)cc(N6CC7CCC(C6)O7)oc45)cccc3c2c1 [NU5455]
  % displacement: 3.3%
